Test results: patent publication US20240100031A1, “PHARMACEUTICAL COMPOSITION FOR PREVENTING OR TREATING VIRAL […] PIPERLONGUMINE-BASED COMPOUND AS ACTIVE INGREDIENT” (priority 2020, published 2024)

Tested on: novel coronavirus (SARS-CoV-2)
Experiment: microbe, parasite or virus in culture
Format: cell-based
Details: for IC50: Severe acute respiratory syndrome coronavirus 2, Vero, 24 h, read-out: Infection inhibitory concentration IC50

Question: Which “inhibition of viral infection compared with positive controls (in words)” value does the source give for COC(=O)c1cc(/C=C/C(=O)N2CCC=C(Cl)C2=O)ccc1O [Compound 12, (E)-methyl-5-(3-(3-chloro-2-oxo-5,6-dihydropyridin-1(2H)-yl)-3-oxoprop-1-en-1-yl)-2-hydroxybenzoate] here?
Answer: more remarkable effects than remdesivir

Question: What about the IC50 of the same compound?
Answer: 2.63 µM

Question: Which “inhibition of viral infection compared with positive controls (in words)” value does the source give for COC(=O)c1cc(/C=C/C(=O)N2CCC=C(Cl)C2=O)ccc1OC(C)=O [Compound 13, (E)-methyl-2-acetoxy-5-(3-(3-chloro-2-oxo-5,6-dihydropyridin-1(2H)-yl)-3-oxoprop-1-en-1-yl)benzoate] here?
Answer: more remarkable effects than remdesivir

Question: What about the IC50 of the same compound?
Answer: 1.86 µM

Question: Which IC50 does the source give for CCC(CC)COC(=O)[C@H](C)N[P@](=O)(OC[C@H]1O[C@@](C#N)(c2ccc3c(N)ncnn23)[C@H](O)[C@@H]1O)Oc1ccccc1 [Remdesivir, remdesivir, reference compound] here?
Answer: 2.65 µM

Question: With COC(=O)c1cc(/C=C/C(=O)N2CC=CC2=O)ccc1OC(C)=O [Compound 4, (E)-methyl-2-acetoxy-5-(3-oxo-3-(2-oxo-2,5-dihydro-1H-pyrrol-1-yl)prop-1-en-1-yl)benzoate] as the compound, how does the IC50 read?
Answer: 7.68 µM

Question: How did the IC50 turn out when Cc1cccc(C)c1OCC(=O)N[C@@H](Cc1ccccc1)[C@@H](O)C[C@H](Cc1ccccc1)NC(=O)[C@H](C(C)C)N1CCCNC1=O [Lopinavir, lopinavir, reference compound] was run?
Answer: 12.7 µM

Question: Which IC50 does the source give for COC(=O)c1cc(/C=C/C(=O)N2CCC=CC2=O)ccc1OC [Compound 1, (E)-methyl-2-methoxy-5-(3-oxo-3-(2-oxo-5,6-dihydropyridin-1(2H)-yl)prop-1-en-1-yl)benzoate] here?
Answer: 4.46 µM

Question: What does the source list for COC(=O)c1cc(/C=C/C(=O)N2CCC=C(Br)C2=O)ccc1OC(C)=O [Compound 11, (E)-methyl-2-acetoxy-5-(3-(3-bromo-2-oxo-5,6-dihydropyridin-1(2H)-yl)-3-oxoprop-1-en-1-yl)benzoate]?
Answer: inhibition of viral infection compared with positive controls (in words): more remarkable effects than remdesivir; IC50: 1.97 µM

Question: Which IC50 does the source give for O=C(/C=C/c1cccc([N+](=O)[O-])c1)N1CCC=C(Cl)C1=O [Compound 16, (E)-3-chloro-1-(3-(3-nitrophenyl)acryloyl)-5,6-dihydropyridin-2(1H)-one] here?
Answer: 4.19 µM

Question: How did the IC50 turn out when COc1cc(/C=C/C(=O)N2CCC=C(Cl)C2=O)cc(OC)c1OCc1nnc(-c2cc(Cl)cc(Cl)c2)o1 [Compound 19, (E)-3-chloro-1-(3-(4-((5-(3,5-dichlorophenyl)-1,3,4-oxadiazol-2-yl)methoxy)-3,5-dimethoxyphenyl)acryloyl)-5,6-dihydropyridin-2(1H)-one] was run?
Answer: 4.12 µM

Question: With COC(=O)c1cc(/C=C/C(=O)N2CCC=C(Cl)C2=O)ccc1OC [Compound 3, (E)-methyl-5-(3-(3-chloro-2-oxo-5,6-dihydropyridin-1(2H)-yl)-3-oxoprop-1-en-1-yl)-2-methoxybenzoate] as the compound, how does the “inhibition of viral infection compared with positive controls (in words)” value read?
Answer: more remarkable effects than remdesivir

Question: And the IC50?
Answer: 2.01 µM

Question: Which results are given for COC(=O)c1cc(/C=C/C(=O)N2CCC=C(Br)C2=O)ccc1O [Compound 10, (E)-methyl-5-(3-(3-bromo-2-oxo-5,6-dihydropyridin-1(2H)-yl)-3-oxoprop-1-en-1-yl)-2-hydroxybenzoate]?
Answer: inhibition of viral infection compared with positive controls (in words): more remarkable effects than remdesivir; IC50: 2.31 µM

Question: Which “inhibition of viral infection compared with positive controls (in words)” value does the source give for COC(=O)c1cc(/C=C/C(=O)N2CCC=C(Br)C2=O)ccc1OC [Compound 9, (E)-methyl-5-(3-(3-bromo-2-oxo-5,6-dihydropyridin-1(2H)-yl)-3-oxoprop-1-en-1-yl)-2-methoxybenzoate] here?
Answer: more remarkable effects than remdesivir

Question: And the IC50?
Answer: 1.6 µM

Question: With CCN(CC)CCCC(C)Nc1ccnc2cc(Cl)ccc12 (centres unmarked) [Chloroquine, reference compound] as the compound, how does the IC50 read?
Answer: 4.1 µM

Question: Which IC50 does the source give for O=C(/C=C/c1cccc([N+](=O)[O-])c1)N1CCC=C(Br)C1=O [Compound 17, (E)-3-bromo-1-(3-(3-nitrophenyl)acryloyl)-5,6-dihydropyridin-2(1H)-one] here?
Answer: 5.34 µM
